Measured values taken from US10517934B2, “Compositions and methods for the treatment of photoaging and other conditions” (PRO TRANSIT NANOTHERAPY LLC, priority 2014, dated 2019).

System: UV-induced free radicals in porcine ear skin
Assay: Skin antioxidative protection/retention (SAP/SAR) by ESR spectroscopy in porcine ear skin exposed to UV
Parameters: species or system pig
Source text: Freshly excised porcine ear skin is close to human skin that is routinely used as a model for testing the protective efficacy of several topically applied antioxidants against UV-induced free radicals. Porcine skin biopsies obtained from local slaughterhouse (pig skin, 6 month old animals, external lobe of the ears) were used for the experiments. The skin was washed, the subdermal fat was removed and cut into 2×2 cm pieces before the application of test samples on the epidermal layer.
The skin has an intrinsic antioxidant protection potential (enzymatic and non-enzymatic), which can be measured by electron spin resonance (ESR) spectroscopy. If an active test sample applied to the stratum corneum penetrates to deep layers of skin, it increases the skin antioxidative protection (SAP). Labeling skin epidermis and dermis (by soaking skin on dermis side) with a semi-stable test radical (TEMPO, 2,2,6,6-tetramethyl piperidine-N-oxyl) that reacts with free radicals produces signal intensities detected by ESR spectroscopy, which can be quantitatively expressed as percent SAP values to determine the antioxidant activity in skin (epidermis and dermis).
Using SAP values from ESR spectroscopy, skin antioxidative retention (SAR) potential of a test cosmetic formulation can be effectively measured using appropriate radical probes. SAR value indicates the antioxidative activity of the skin after free radical damage (UV radiation), which evaluates the protective effectiveness of topically applied antioxidants/free radical scavengers. In addition to the assessment of antioxidative activity in skin, the SAR value also validates the penetration of the topically applied antioxidants. The SAR values are expressed in percent and are calculated using the following formula: SAR [%]=(SAPUV,Product−SAPUV,Placebo)/(SAPPlacebo−SAPUV,Placebo).
The study was conducted blinded and the operator was supplied with formulations that were coded. Pro-NP™, control NPs, or placebo (mixed at 2% w/w in anhydrous lotion) were applied on the skin (2 mg/cm^2) and allowed to penetrate for definite times (10 minutes, 30 minutes, 4 hours or 18 hours). The skin was then exposed to UV radiation (0.6 MED; Minimal Erythema Dose) to induce free radicals that lead to a decrease in the SAP values up to 59% of the initial value (without UV treatment) of the untreated skin. Irradiation source: UV solar simulator 300 W Oriel (Newport). The irradiances as integrated value over the spectral ranges were E (UVB=280-320)=23.5 W/m^2 and E (UVA=320-400 nm)=180 W/m^2. The maintenance of the SAP values after UV exposure due to the test product is expressed by the SAR values.

## Tocopherol [1% Tocopherol]
2% w/w in anhydrous lotion, 2 mg/cm^2, 10 mins penetration, UV 0.6 MED
  SAR (%) 10 mins: 20%
30 mins penetration, UV 0.6 MED
  SAR (%) 30 mins: 6%
4 hrs penetration, UV 0.6 MED
  SAR (%) 4 hrs: 0%
18 hrs penetration, UV 0.6 MED
  SAR (%) 18 hrs: 0%
After 10 minutes application
  protection after UV: 24%
After 30 minutes
  protection after UV: very weak protection
Without UV irradiation
  increase of the SAP values before UV irradiation with respect to untreated skin: 29%
